Columns and labels:
IL-2 = IL-2 ELISA in retrovirally transduced primary CD4+ T cells; type: cell-based; details: anti CD3 or anti CD3 plus CD28, 24 hours
Method: In panel A Jurkat T cells were stably transfected with vector (pEF) or KRC expression plasmids. Stable clones were stimulated for 18 hours with PMA (50 ng/mL) plus ionomycin (2 μM) and IL-2 production was measured by ELISA. In panel B Primary CD4+ T cells were activated for 36 hours and subsequently transduced with control (RV), KRC, or KRC dominant negative (ZAS2) bicistronic GFP-expressing retroviruses. GFP-positive cells were sorted and stimulated for 24 hours with anti-CD3 or anti-CD3/anti-CD28 antibodies and IL-2 production was measured by ELISA. In panel C CD4 T cells from KRC +/+ or −/− mice were stimulated with anti-CD3 (1.0 μg/mL)/CD28 (0.5 μg/mL) antibodies for 24 hours and IL-2 production was measured by ELISA. In panel D CD4 T cells from KRC +/+ or −/− mice were stimulated with anti-CD3/CD28 antibodies for 72 hours in the presence of 200 U/mL human IL-2. IFNγ production was measured by ELISA.
Activated CD4^+T cells were transduced by RV, RV-KRC or RV-ZAS2 as described previously (Szabo, S. J., et al. (2000) Cell 100:655-669).
Therefore, the effects of KRC overexpression were studied in primary CD4+T cells as well as in the Jurkat line using a retroviral delivery system to express KRC in primary CD4+T cells. […] The ability of each population to produce IL-2 following subsequent activation by anti CD3 or anti CD3 plus CD28 was measured at 24 hours post-stimulation. […]

JNK = JNK in vitro kinase assay after transfection of 293 cells; type: cell-based, human; details: 293 cells cotransfected with TRAF2, 24 hours
Method: Inhibition of TRAF2 (A) and TNFα (B, C) mediated JNK/SAPK activation by ectopic expression of KRC. (A) 293 T cells were transfected with 400 ng of TRAF2 and 2 μg of the indicated expression vector. Twenty-four hours after the transfection, the cells were harvested and lysed, and the endogenous JNK was precipitated with 5 μg of GST-cJUN (1-79) for 4 hours. JNK activity was determined by using GST-cJUN (1-79) as a substrate. (B,C) 293 T cells were cotransfected with vectors encoding HA-tagged JNK2 (500ng) and the indicated expression vector (2 μg). Twenty-four hours after the transfection cells were stimulated for 10 min with 10 ng/ml of TNFα and cells harvested at varying time points. JNK activity was assayed with GST-cJUN (1-79) as substrate.
Anti-HA or anti-FLAG immunoprecipitates were used for immune complex kinase assays that were performed at 30° C. for 30 min with 1 μg of substrate, 10 μCi of γ^32 P ATP, and 10 μM ATP in 30 μl of kinase buffer (20 mM HEPES, pH 7.4, 10 mM MgCl2, 25 mM β-glycerophosphate, 50 μm NA3VO4, and 50 μm DTT). The substrate was GST-c-JUN.

NIH 3T3 cells = assay: β-galactosidase cotransfection apoptosis assay in 3T3 cells; type: cell-based; details: TNFα 20 ng/ml
Method: 3T3 cells were cotransfected with CMV lacZ vector (300 ng per plate) and either empty expression vector or the expression vectors indicated (2 μg of each). Half of the transfected cultured cells were treated with TNFα (20 ng/ml) at 12 hours after the transfection and the other half left untreated. All the cells were fixed and stained at 36 hours after the transfection. The number of blue cells in each transfection was determined by counting six different fields. A representative experiment of three performed is presented.
β-galactosidase cotransfection assays for determination of cell death were performed as described (Hsu, et al.). Transfected NIH 3T3 cells were washed with PBS, fixed in PBS containing 3% paraformaldehyde for 10 min at 4° C., and washed with PBS. Fixed cells were stained overnight with XGal. The number of blue-stained cells was determined microscopically. The average number from one representative experiment of three is shown.

In the case of “KRC: full-length KRC zinc finger protein (SEQ ID NO:2) overexpressed from an expression vector”, the “IL-2 production, increase versus GFP control retrovirus” value (IL-2) is reported as 3 to 4 fold, the “TRAF2-dependent JNK activation” value (JNK) is reported as “blocked JNK activation only partially” and the “TNFα-induced apoptosis (TNF mediated cytotoxicity)” value (NIH 3T3 cells) is reported as “increase in TNF mediated cytotoxicity”.
